Consider 12 molecules from ChEMBL document CHEMBL1201862, “PubChem BioAssay data set” (2004).

In data set [1] the target is T1, Corticotropin-releasing factor receptor 2/Corticotropin-releasing factor-binding protein (Homo sapiens, UniProt P24387+Q13324).
T1 sequence (Q13324 whole entry): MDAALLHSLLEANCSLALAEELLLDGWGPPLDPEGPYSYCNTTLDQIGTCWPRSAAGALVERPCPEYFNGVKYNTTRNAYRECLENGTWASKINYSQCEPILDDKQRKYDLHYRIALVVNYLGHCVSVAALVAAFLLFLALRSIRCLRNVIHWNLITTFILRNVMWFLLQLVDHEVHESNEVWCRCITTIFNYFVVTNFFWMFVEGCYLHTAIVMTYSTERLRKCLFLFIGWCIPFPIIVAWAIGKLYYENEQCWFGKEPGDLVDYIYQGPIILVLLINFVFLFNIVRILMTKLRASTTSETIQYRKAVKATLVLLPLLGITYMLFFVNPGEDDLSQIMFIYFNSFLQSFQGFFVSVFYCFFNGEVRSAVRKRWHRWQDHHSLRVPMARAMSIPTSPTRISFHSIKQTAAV
T1 sequence (P24387 whole entry): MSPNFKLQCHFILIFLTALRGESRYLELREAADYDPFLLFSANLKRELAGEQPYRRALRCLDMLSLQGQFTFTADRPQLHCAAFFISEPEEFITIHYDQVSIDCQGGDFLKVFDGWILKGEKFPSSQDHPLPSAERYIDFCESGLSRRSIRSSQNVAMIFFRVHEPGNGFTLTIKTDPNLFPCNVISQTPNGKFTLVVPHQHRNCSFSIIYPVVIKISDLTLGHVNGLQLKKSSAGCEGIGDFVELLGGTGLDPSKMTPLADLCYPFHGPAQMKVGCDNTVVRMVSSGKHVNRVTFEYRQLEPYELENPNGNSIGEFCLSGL
The experiment in a line: Dose Response confirmation of uHTS hits for small molecule antagonists of the CRF-binding protein and CRF-R2 receptor complex. To be noted: read-out: IC50_Mean. It is filed as functional.

Data set [2] concerns the target T1, Corticotropin-releasing factor receptor 2/Corticotropin-releasing factor-binding protein. Nature of the data set: activators of CRF receptor 2 with binding protein – uHTS hits, confirmation (AID 602473). It is filed as functional. Conditions: read-out: EC50_Mean.
Data set [3] addresses T2, Sentrin-specific protease 1 (Homo sapiens, UniProt Q9P0U3). Nature of the data set: SENP1 catalytic domain blockers, concentration series – biochemical, kinetic FRET, dose response (AID 651697). Conditions: read-out: IC50_Mean. It is filed as functional.
Data set [4] concerns the target T2, Sentrin-specific protease 1. Nature of the data set: Dose response confirmation of small molecule inhibitors of the catalytic domain of the SUMO protease, SENP1 in a FRET assay. Conditions: read-out: IC50_Mean. It is filed as functional.
In data set [5] the target is Nuclear receptor subfamily 5 group A member 2 (Homo sapiens, UniProt O00482). It is filed as functional, cell-based.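 Also: HEK293T cells transfected with LRH-1 and a StAR promoter luciferase reporter; potency for inhibitors that lower LRH-1 driven reporter light.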
A further data set deals with Steroidogenic factor 1 (Homo sapiens, UniProt Q13285). The experiment in a line: Counterscreen for inverse agonists of the liver receptor homolog-1 (LRH-1; NR5A2): Luminescence-based cell-based high throughput dose response assay to identify inverse agonists of the Steroidogenic Factor 1 Nuclear Receptor (SF1; NR5A1). It is filed as functional. On the technique in general: A counterscreen serves to expose hits that act by an unwanted route or on another target.

Data set [6] can be described thus: nonselective StAR promoter luciferase inhibitors – cell-based, luminescence, luciferase reporter, counter-screen for LRH-1 inverse agonist project, dose response (AID 651969). It is filed as functional.
Data set [7] is described as follows: toxicity toward HepG2 liver cells – cell-based, plate reader, cherry-pick, antagonist series, cytotoxicity control, dose response (AID 743416). It is filed as functional.
Data set [8] can be described thus: blockers of bursicon-stimulated LGR2 cAMP reporter – cell-based, HEK293, CRE-luciferase reporter, cherry pick, set 2, dose response (AID 743343).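 Also: transfected cells were stimulated with diluted bursicon conditioned medium after compound addition.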 It is filed as functional.
Data set [9] is described as follows: blockade of melanocortin 4 receptor signaling – cell-based, plate reader, cherry pick, counter-screen for LGR2 antagonist project, dose response (AID 743444).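 Also: transfected HEK 293 cells stimulated with alpha-MSH peptide; potency of inhibitors of the alpha-MSH evoked signal.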 It is filed as functional.
The nature of data set [10]: viability loss in HEK293 cells – cell-based, plate reader, cherry-picked samples, cytotoxicity control, dose response (AID 743446). It is filed as functional.
Data set [11] concerns the target DNA repair and recombination protein RAD54-like (Homo sapiens, UniProt Q92698). Nature of the data set: RAD54 Holliday junction migration blockers – biochemical, fluorescence, cherry-picked samples, dose series, confirmation (AID 651657). It is filed as functional.
In data set [12] the target is SWI/SNF-related matrix-associated actin-dependent regulator of chromatin subfamily A member 2 (Homo sapiens, UniProt P51531). The experiment in a line: Luminescence-based cell-based high throughput dose response assay to identify activators of the function of SWI/SNF related, matrix associated, actin dependent regulator of chromatin, subfamily a, member 2 (SMARCA2, BRM). It is filed as functional.

A short description of data set [13]: Counterscreen for activators of the function of SWI/SNF related, matrix associated, actin dependent regulator of chromatin, subfamily a, member 2 (SMARCA2, BRM): Luminescence-based cell-based high throughput dose response assay to identify non-selective compounds using the VP16 reporter assay. It is filed as functional.
Data set [14] has as its target T3, DNA repair protein RAD52 homolog (Homo sapiens, UniProt P43351).
T3 sequence (P43351 whole entry): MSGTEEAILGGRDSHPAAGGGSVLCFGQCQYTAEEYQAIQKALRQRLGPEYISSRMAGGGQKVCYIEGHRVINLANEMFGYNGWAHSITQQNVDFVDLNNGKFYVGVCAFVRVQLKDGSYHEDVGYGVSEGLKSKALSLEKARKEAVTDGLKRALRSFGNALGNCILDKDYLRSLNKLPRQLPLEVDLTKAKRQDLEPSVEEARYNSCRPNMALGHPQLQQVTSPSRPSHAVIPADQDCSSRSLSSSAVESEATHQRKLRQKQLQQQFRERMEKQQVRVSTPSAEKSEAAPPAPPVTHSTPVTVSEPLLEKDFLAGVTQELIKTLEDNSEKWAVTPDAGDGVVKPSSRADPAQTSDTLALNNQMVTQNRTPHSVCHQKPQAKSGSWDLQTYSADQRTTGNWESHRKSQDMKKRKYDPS
It is filed as functional, biochemical.

In data set [15] the target is T4, Low molecular weight phosphotyrosine protein phosphatase (Homo sapiens, UniProt P24666).
T4 sequence (P24666 whole entry): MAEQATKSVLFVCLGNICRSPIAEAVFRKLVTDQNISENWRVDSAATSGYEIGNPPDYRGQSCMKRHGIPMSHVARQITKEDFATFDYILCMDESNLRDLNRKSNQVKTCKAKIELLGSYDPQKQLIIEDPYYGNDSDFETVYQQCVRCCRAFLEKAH
It is filed as functional. To be noted: read-out: IC50_Mean.

Data set [16] addresses T4, Low molecular weight phosphotyrosine protein phosphatase. It is filed as functional. Conditions: read-out: IC50_Mean. The source holds these as a separate data set.
A short description of data set [17]: T. cruzi growth inhibition in host cells, dose response, cell-based, plate reader, dry powder, set 2 (AID 652275). It is filed as functional.
Data set [18] can be described thus: anti-trypanosomal activity in BESM host cells – imaging, CA-I/72 strain, bovine embryo skeletal muscle, dry powder, dose response (AID 651885). It is filed as functional, cell-based.
Data set [19] deals with Scavenger receptor class B member 1 (Mus musculus, UniProt Q61009). The experiment in a line: blockers of DiI-HDL lipid transfer via SR-BI – cell-based, ldlA[mSR-BI] CHO, DiI fluorescence, dry powder, set 10, dose response (AID 624029). It is filed as functional.
For a further data set, the target named is Albumin (Bos taurus, UniProt P02769). The experiment in a line: Counterscreen for inhibitors of T-cell receptor (TCR)-CD3 interaction: Fluorescence-based biochemical high throughput dose response assay to identify inhibitors of T-cell receptor (TCR)-CD3 interaction using a TAMRA-labeled BSA probe. It is filed as functional.
In another data set the target is Cytochrome P450 2C19 (Homo sapiens, UniProt P33261). Nature of the data set: Cytochrome panel assay with activity outcomes. Panel member name: p450-cyp2c19 Compounds with AC50 equal or less than 10 uM are considered active. It is filed as functional. Conditions: read-out: AC50.
The nature of data set [20]: viability loss in HEK293T cells – cell-based, cherry-picks, cytotoxicity control for HIV Vif inhibitor project, dose response (AID 652208). It is filed as functional.
For another data set, the target named is Cytochrome P450 3A4 (Homo sapiens, UniProt P08684).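 Also: CYP3A4 tested as one member of a cytochrome P450 panel screen.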
Another data set has as its target Protein Wnt-3a (Mus musculus, UniProt P27467). The experiment in a line: SAR analysis of small molecule antagonists of Gli-SUFU in a Wnt3a luminescent reporter assay. It is filed as functional. (A reporter such as luciferase makes a cellular process visible.)
Another data set concerns the target Genome polyprotein (dengue virus type 2, UniProt P29990). The experiment in a line: flavivirus cap methylation enzyme inhibition – biochemical, confirmation dose response, primary screen (AID 588689). It is filed as functional.
The target of data set [21] is T5, Fatty acid synthase (Homo sapiens, UniProt P49327). Nature of the data set: inhibition of human FAS-TE enzyme activity – biochemical, endpoint fluorescence intensity, uHTS hits, dose response (AID 624327).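 Also: fluorescence from hydrolysis of an O-methyl fluorescein acyl ester substrate by the enzyme.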 It is filed as functional.
Data set [22] deals with Mitochondrial peptide methionine sulfoxide reductase (Bos taurus, UniProt P54149). It is filed as functional.
In data set [23] the target is T6, Rac GTPase-activating protein 1 (Homo sapiens, UniProt Q9H0H5).
T6 sequence (Q9H0H5 whole entry): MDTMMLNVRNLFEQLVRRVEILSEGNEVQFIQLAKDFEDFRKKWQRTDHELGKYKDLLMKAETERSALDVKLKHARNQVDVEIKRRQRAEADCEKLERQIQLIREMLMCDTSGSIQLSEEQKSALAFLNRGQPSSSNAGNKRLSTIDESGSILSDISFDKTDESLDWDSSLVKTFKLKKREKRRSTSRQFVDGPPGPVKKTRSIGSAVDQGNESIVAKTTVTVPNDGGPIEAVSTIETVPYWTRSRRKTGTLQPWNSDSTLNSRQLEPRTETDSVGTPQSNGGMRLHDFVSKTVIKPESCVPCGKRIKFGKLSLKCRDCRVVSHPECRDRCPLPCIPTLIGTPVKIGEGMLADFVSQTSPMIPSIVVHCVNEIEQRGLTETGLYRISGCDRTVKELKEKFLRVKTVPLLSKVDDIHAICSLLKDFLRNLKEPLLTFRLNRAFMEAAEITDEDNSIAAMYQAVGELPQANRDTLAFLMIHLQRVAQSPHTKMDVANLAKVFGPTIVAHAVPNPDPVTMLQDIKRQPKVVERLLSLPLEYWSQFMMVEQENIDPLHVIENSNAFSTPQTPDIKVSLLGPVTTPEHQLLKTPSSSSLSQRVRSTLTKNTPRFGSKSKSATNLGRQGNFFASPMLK
The experiment in a line: blockers of MgcRacGAP-driven Rac1 GTP hydrolysis – biochemical, ADP Hunter fluorescence, primary and confirmatory, confirmation (AID 624330). It is filed as functional.

Data set [24] concerns the target T5, Fatty acid synthase. Nature of the data set: inhibition of human FAS-TE enzyme activity – biochemical, kinetic fluorescence intensity, dose response (AID 624326).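 Also: rate of fluorescence rise from hydrolysis of a fluorogenic O-methyl fluorescein ester substrate.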 It is filed as functional.
Data set [25] addresses Hepatocyte nuclear factor 4-alpha (Homo sapiens, UniProt P41235). It is filed as functional, cell-based.

Active and inactive are the calls of the source. Bounds are passed on as bounds.

T2 sequence (Q9P0U3 whole entry, the tested form may be a part): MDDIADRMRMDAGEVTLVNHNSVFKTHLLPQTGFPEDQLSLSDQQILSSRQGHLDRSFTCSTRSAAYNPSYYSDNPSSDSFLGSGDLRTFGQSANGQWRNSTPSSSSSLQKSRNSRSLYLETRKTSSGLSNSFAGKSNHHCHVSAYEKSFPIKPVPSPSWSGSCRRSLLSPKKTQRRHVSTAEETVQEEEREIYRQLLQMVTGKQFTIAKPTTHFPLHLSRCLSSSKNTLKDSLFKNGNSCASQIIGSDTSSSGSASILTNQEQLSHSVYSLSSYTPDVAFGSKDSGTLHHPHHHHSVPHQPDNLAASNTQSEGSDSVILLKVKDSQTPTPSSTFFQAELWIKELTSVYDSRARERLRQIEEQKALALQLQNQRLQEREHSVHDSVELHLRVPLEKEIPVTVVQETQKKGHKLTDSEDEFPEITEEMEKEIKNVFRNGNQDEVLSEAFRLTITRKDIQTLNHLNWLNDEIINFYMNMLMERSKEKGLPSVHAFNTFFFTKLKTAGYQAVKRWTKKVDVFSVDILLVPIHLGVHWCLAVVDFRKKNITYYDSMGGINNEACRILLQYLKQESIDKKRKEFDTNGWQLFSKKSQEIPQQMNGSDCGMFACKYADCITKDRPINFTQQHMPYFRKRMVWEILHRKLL
T5 sequence (P49327 whole entry): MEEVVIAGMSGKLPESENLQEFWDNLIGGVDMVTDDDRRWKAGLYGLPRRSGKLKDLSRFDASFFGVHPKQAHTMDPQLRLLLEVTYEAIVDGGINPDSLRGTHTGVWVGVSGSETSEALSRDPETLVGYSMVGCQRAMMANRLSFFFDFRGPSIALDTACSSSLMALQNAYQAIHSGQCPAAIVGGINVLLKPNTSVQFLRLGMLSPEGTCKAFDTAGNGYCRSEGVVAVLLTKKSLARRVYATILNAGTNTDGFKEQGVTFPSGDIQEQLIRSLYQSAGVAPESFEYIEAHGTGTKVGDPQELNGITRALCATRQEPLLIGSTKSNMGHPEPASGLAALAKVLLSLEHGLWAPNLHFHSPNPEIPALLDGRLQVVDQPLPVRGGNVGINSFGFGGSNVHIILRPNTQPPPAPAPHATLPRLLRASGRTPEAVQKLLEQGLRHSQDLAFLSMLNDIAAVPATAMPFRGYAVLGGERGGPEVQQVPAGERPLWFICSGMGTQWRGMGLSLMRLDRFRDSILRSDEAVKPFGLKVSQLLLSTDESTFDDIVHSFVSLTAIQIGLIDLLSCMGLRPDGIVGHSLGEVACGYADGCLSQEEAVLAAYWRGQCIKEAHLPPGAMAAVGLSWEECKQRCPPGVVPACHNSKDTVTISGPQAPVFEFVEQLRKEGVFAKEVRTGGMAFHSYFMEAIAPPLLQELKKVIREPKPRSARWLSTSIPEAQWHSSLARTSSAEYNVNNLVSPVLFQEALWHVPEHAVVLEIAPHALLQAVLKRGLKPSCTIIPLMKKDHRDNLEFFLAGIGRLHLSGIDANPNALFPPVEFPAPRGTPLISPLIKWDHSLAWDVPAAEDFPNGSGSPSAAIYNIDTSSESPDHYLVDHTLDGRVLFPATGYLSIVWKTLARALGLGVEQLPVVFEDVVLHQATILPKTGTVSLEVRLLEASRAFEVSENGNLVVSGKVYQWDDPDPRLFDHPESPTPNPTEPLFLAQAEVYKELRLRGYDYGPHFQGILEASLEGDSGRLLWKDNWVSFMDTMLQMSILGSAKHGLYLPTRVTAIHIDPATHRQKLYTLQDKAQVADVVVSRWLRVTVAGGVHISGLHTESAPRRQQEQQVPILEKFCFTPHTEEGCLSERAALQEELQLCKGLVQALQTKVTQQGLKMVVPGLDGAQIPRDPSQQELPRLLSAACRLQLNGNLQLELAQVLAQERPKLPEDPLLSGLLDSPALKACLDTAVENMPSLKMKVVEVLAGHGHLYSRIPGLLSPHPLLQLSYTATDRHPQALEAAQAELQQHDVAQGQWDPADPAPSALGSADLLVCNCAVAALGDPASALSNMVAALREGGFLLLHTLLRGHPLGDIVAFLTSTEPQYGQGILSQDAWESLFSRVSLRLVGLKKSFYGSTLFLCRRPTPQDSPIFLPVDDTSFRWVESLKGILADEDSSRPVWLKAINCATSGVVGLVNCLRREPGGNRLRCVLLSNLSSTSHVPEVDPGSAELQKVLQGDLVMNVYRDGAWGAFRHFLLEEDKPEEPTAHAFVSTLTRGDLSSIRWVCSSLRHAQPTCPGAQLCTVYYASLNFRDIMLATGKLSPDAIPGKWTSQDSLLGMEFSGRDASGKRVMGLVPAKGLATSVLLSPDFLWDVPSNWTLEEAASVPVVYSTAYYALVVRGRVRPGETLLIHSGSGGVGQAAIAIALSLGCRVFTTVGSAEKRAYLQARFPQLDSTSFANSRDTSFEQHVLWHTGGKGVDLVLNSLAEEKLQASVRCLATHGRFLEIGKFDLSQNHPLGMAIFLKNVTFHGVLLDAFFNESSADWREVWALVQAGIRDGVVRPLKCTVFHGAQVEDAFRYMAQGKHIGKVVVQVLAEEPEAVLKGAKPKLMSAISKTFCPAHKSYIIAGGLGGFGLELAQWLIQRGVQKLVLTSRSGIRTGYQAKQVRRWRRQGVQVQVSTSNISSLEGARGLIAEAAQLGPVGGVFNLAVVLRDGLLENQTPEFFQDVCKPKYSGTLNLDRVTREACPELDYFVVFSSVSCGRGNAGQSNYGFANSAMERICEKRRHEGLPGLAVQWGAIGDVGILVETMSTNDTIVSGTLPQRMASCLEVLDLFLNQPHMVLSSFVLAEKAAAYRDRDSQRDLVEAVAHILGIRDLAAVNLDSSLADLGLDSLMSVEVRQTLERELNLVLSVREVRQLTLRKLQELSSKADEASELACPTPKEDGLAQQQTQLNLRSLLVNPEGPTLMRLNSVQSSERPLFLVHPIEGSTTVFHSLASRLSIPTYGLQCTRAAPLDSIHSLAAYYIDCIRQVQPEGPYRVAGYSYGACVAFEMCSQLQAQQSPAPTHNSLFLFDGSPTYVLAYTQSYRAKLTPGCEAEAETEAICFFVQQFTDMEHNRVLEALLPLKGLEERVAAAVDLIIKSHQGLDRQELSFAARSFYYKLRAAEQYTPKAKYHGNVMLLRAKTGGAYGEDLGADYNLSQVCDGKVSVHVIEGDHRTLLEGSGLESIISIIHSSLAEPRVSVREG
Chain of SWI/SNF-related matrix-associated actin-dependent regulator of chromatin subfamily A member 2 (P51531 whole entry): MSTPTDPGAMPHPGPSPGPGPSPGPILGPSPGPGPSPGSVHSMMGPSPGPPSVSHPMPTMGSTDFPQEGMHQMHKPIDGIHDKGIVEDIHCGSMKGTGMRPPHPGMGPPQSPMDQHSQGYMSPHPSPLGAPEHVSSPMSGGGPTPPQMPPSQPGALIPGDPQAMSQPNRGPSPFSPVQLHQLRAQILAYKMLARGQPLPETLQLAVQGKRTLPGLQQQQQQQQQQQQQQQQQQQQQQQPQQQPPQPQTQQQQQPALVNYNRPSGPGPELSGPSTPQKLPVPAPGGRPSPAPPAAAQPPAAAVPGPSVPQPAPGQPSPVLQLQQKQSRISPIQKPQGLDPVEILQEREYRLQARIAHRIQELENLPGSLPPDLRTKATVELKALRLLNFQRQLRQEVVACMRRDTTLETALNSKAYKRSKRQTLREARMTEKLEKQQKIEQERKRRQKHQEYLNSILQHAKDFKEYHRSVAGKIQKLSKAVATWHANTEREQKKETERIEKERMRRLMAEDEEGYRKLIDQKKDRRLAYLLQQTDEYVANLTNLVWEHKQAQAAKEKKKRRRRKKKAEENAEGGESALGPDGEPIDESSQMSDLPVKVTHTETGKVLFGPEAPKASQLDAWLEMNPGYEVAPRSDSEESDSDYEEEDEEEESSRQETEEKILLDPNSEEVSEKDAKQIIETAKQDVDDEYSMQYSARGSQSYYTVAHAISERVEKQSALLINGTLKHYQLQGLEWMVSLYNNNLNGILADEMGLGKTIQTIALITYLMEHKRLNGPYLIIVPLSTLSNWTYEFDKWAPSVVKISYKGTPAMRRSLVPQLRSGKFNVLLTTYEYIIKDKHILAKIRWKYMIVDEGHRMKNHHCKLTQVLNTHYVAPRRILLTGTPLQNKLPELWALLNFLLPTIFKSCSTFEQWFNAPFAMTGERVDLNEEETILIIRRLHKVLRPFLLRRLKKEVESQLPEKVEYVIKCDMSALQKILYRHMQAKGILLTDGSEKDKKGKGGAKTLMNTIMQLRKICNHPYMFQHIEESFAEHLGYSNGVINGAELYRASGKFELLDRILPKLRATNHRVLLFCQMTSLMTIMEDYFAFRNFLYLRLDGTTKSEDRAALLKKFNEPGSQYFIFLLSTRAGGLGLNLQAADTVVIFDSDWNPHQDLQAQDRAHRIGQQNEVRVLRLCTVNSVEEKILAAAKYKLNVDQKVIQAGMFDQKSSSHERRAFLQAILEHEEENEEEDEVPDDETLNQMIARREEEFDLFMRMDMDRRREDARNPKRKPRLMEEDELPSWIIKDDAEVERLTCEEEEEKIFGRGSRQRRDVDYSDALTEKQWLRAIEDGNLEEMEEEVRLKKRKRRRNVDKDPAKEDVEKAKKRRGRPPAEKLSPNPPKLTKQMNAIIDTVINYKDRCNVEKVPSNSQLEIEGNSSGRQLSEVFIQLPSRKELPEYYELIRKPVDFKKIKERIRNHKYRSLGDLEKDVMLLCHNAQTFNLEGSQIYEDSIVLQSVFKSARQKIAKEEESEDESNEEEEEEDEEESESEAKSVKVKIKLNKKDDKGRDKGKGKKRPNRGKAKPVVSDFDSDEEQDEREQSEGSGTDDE
Chain of Mitochondrial peptide methionine sulfoxide reductase (P54149 whole entry): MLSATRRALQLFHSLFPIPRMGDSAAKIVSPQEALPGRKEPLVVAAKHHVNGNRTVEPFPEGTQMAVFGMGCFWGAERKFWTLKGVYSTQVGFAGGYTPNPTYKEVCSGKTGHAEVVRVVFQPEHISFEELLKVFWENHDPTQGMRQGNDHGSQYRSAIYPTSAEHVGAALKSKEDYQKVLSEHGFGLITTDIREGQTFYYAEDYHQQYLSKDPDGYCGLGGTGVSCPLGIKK

For `C=CCNC(=O)c1cccc2c1C(=O)c1ccc(N3CCOCC3)cc1S2(=O)=O`, the IC50 in data set [1] is > 47.1 µM (inactive); in data set [3], 13.9 µM (active); in data set [4] it was 13.2 µM (active). In data set [2], the EC50 was > 53 µM (inactive).

Turning to `CCn1cc(Br)c(C(=O)Nc2ccccc2C(=O)OC)n1`, the IC50 is 35.9 µM (inactive) in data set [5], 10.5 µM (inactive) at Steroidogenic factor 1 and 35.9 µM (inactive) in data set [6].

One may read the AC50 as the midpoint of the concentration-response curve, whichever way the signal moves. Turning to `O=C(NC1(Cc2ccccc2)CCN(Cc2ccc(-c3ccccc3)cc2)C1=O)c1ccccc1` (stereo unspecified), the AC50 is > 52 µM (inactive) in data set [7], 5.14 µM (active) in data set [8], 10.1 µM (active) in data set [9] and > 52 µM (inactive) in data set [10].

For the molecule `Cc1ccc(-c2nc(NCCN(C)C)c3ccccc3n2)cc1`, the AC50 in [11] was 12.6 µM (active); in [14] it was 8.93 µM (active). The EC50 in [12] was 37.1 µM (inactive); in data set [13] it was > 91.2 µM (inactive).

For the molecule `CCOCCCNc1nc(-c2ccccc2)nc2ccccc12`, the IC50 in [15] is 21.1 µM (inactive); in data set [16], 12.3 µM (active).

For the molecule `Cc1cc(C(=O)Nc2cccc3c2O[C@@H](CN(C)Cc2ccc(Oc4ccccc4)cc2)[C@H](C)CN([C@@H](C)CO)C3=O)n(C)n1`, the concentration at half-maximal activity (AC50) in [17] was 1.28 µM (active). Further, in [18], the IC50 was > 20 µM (inactive).

Take `Cc1ccc(OCc2cc(C(=O)N3CCCC(O)C3)no2)cn1` (stereo unspecified): the AC50 in data set [19] was 61 µM (active).

`NNC(=O)c1[nH]cnc1C(=O)Nc1ccccn1`: at Albumin, the IC50 is > 94.2 µM (inactive).

With `COC(=O)c1ccc(Oc2coc3cc(OCc4cnn(-c5ccccc5)c4)ccc3c2=O)cc1`, the half-maximal activity concentration (AC50) is 0.708 µM (inconclusive) on Cytochrome P450 2C19, 38.3 µM (active) in data set [20] and “inconclusive” on Cytochrome P450 3A4.

Take `O=C(Nc1cc(N2CCCCC2)ncn1)c1ccc2ccccc2c1`: the IC50 on Protein Wnt-3a is > 21.8 µM (inactive).

`CSc1nc(N)c(N=Nc2ccc([As](=O)(O)O)cc2)c(O)n1`: the IC50 was 57.3 µM (active) at Genome polyprotein; 11.4 µM (active) at Fatty acid synthase [21]; 9.91 µM (active) in data set [22]; 39.9 µM (active) in [23]; 4.99 µM (active) on Fatty acid synthase [24].

As for `CC(c1nc2ccccc2[nH]1)n1c(=O)c(-c2ccco2)nc2ccccc21` (stereo unspecified), the IC50 in [25] is 2.93 µM (active).
